Target: T1, Calf polymerase alpha (Bos taurus, UniProt A0AAA9TD94)
T1 construct: purchased Replizyme Ltd (Heslington, York, UK)
T1 sequence (A0AAA9TD94 1-1441): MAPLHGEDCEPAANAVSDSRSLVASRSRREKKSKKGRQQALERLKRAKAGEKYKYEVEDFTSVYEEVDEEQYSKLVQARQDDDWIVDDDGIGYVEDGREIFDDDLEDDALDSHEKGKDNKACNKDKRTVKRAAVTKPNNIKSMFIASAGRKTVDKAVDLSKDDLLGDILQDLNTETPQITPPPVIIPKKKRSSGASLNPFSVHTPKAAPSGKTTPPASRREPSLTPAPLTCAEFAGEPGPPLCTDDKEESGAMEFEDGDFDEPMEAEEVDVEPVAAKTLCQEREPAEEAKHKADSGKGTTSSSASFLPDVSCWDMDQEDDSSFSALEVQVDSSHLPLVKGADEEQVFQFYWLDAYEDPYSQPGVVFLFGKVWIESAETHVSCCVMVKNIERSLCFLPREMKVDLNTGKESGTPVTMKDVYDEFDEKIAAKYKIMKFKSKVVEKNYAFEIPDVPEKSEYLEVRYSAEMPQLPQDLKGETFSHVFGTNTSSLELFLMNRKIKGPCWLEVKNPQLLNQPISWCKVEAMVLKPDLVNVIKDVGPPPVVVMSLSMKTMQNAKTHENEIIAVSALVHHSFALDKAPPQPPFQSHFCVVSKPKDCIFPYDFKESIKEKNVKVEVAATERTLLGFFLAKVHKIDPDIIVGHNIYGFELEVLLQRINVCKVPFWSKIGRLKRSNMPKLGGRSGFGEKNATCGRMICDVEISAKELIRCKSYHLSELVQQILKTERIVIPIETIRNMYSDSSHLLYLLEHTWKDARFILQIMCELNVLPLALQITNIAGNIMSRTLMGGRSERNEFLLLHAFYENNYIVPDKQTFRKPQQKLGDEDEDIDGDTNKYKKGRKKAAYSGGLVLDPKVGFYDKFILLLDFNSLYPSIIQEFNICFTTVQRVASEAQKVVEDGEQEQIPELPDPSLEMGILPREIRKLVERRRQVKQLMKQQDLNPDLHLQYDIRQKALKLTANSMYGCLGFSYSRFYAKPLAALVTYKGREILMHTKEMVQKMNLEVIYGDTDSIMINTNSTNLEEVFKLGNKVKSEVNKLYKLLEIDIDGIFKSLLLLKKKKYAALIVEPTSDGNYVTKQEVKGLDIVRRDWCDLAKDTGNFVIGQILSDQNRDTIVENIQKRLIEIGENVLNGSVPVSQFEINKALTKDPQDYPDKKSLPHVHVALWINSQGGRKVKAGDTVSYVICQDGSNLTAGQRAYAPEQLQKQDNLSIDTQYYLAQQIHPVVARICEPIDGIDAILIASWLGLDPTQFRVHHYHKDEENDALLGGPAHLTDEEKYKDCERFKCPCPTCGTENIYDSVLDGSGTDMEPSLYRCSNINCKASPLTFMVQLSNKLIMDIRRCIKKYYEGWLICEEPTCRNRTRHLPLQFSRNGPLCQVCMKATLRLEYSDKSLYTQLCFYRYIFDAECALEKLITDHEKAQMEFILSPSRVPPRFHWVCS
Assay: Calf polymerase alpha inhibition (Replizyme kit)
Format: biochemical
Conditions: at 10 μM, single point screening
Protocol: Calf polymerase alpha and human polymerase alpha investigations were performed with a kit available from Replizyme Ltd (Heslington, York, UK).

SMILES: Cc1ccc(NC(=O)[C@H](CCCCN)NC(=O)Nc2ccc(Cc3ccccc3)cc2)cc1 [Compound 74, (S)-6-AMINO-2-[3-(4-BENZYL-PHENYL)-UREIDO]-HEXANOIC ACID P-TOLYLAMIDE]
- % Inhibition: 92%

SMILES: NCCCCC[C@H](NC(=O)Nc1ccc(OCc2ccccc2)cc1)C(=O)Nc1ccc(C2CCCCC2)cc1 [Compound 121, (S)-7-AMINO-2-[3-(4-BENZYLOXY-PHENYL)-UREIDO]-HEPTANOIC ACID (4-CYCLOHEXYL-PHENYL)-AMIDE]
- inhibition at 10 µM: 102%

SMILES: Cc1ccc(NC(=O)[C@H](CCN)NC(=O)OCC2c3ccccc3-c3ccccc32)cc1 [Compound 108, (S)-(3-AMINO-1-P-TOLYLCARBAMOYL-PROPYL)-CARBAMIC ACID 9H-FLUOREN-9-YLMETHYL ESTER]
- % Inhibition: 84%

SMILES: NCCCC[C@H](NC(=O)OCC1c2ccccc2-c2ccccc21)C(=O)NC1CCCCC1 [Compound 22, (S)-(5-AMINO-1-CYCLOHEXYLCARBAMOYL-PENTYL)-CARBAMIC ACID 9H-FLUOREN-9-YLMETHYL ESTER]
- inhibition at 10 µM: 14%

SMILES: Cc1ccc(NC(=O)[C@H](CCCCN)NC(=O)Nc2cccc(-c3ccccc3)c2)cc1 [Compound 127, (S)-6-AMINO-2-(3-BIPHENYL-3-YL-UREIDO)-HEXANOIC ACID P-TOLYLAMIDE]
- % Inhibition: 45%

SMILES: Cc1cc2cc(NC(=O)[C@H](CCCCN)NC(=O)Nc3ccc(-c4ccccc4)cc3)ccc2[nH]1 [Compound 94, (S)-6-AMINO-2-(3-BIPHENYL-4-YL-UREIDO)-HEXANOIC ACID (2-METHYL-1H-INDOL-5-YL)-AMIDE]
- inhibition at 10 µM: 93%

SMILES: Cc1ccc(NC(=O)[C@H](CCCCN)NC(=O)Nc2ccc(OCc3cccnc3)cc2)cc1 [Compound 261, (S)-6-AMINO-2-{3-[4-(PYRIDIN-3-YLMETHOXY)-PHENYL]-UREIDO}-HEXANOIC ACID P-TOLYLAMIDE]
- % Inhibition: 55%

SMILES: Cc1ccc(NC(=O)[C@H](CCCCN)NC(=O)OCC2c3ccccc3-c3ccccc32)cc1 [Compound 20, (S)-(5-AMINO-1-P-TOLYLCARBAMOYL-PENTYL)-CARBAMIC ACID 9H-FLUOREN-9-YLMETHYL ESTER]
- inhibition at 10 µM: 18%

SMILES: Cc1ccc(NC(=O)[C@H](CCCCN)NC(=O)NC2c3ccccc3-c3ccccc32)cc1 [Compound 126, (S)-6-AMINO-2-[3-(9H-FLUOREN-9-YL)-UREIDO]-HEXANOIC ACID P-TOLYLAMIDE]
- % Inhibition: 98%

SMILES: Cc1ccc(NC(=O)[C@H](CCCCN)NC(=O)Nc2ccc(NCc3ccc(F)cc3)cc2)cc1 [Compound 225, (S)-6-AMINO-2-{3-[4-(4-FLUORO-BENZYLAMINO)-PHENYL]-UREIDO}-HEXANOIC ACID P-TOLYLAMIDE]
- % Inhibition: 62%

SMILES: Cc1ccc(NC(=O)[C@H](Cc2ccc(CN)cc2)NC(=O)Nc2ccc(-c3ccccc3)cc2)cc1 [Compound 145, (S)-3-(4-AMINOMETHYL-PHENYL)-2-(3-BIPHENYL-4-YL-UREIDO)-N-P-TOLYL-PROPIONAMIDE]
- % Inhibition: 102%

SMILES: Cc1ccc(NC(=O)[C@H](CCCC[N+](C)(C)C)NC(=O)OCC2c3ccccc3-c3ccccc32)cc1 [Compound 110]
- % Inhibition: 62.5%

SMILES: NCCCC[C@H](NC(=O)OCC1c2ccccc2-c2ccccc21)C(=O)NCc1ccccc1 [Compound 21, (S)-(5-AMINO-1-BENZYLCARBAMOYL-PENTYL)-CARBAMIC ACID 9H-FLUOREN-9-YLMETHYL ESTER]
- inhibition at 10 µM: 12%

SMILES: NCCCC[C@@H](NC(=O)Nc1ccc(-c2ccccc2)cc1)C(=O)Nc1ccc(C2CCCCC2)cc1 [Compound 142, (R)-6-AMINO-2-(3-BIPHENYL-4-YL-UREIDO)-HEXANOIC ACID (4-CYCLOHEXYL-PHENYL)-AMIDE]
- inhibition at 10 µM: 103%

SMILES: Cc1ccc(NC(=O)CN(CCCCN)C(=O)Nc2ccc(OCc3ccccc3)cc2)cc1 [Compound 278, 2-[1-(4-AMINO-BUTYL)-3-(4-BENZYLOXY-PHENYL)-UREIDO]-N-P-TOLYL-ACETAMIDE]
- % Inhibition: 101%

SMILES: NCCCC[C@@H](NC(=O)Nc1ccc(OCc2ccccc2)cc1)C(=O)Nc1ccc(C2CCCCC2)cc1 [Compound 166, (R)-6-AMINO-2-[3-(4-BENZYLOXY-PHENYL)-UREIDO]-HEXANOIC ACID (4-CYCLOHEXYL-PHENYL)-AMIDE]
- inhibition at 10 µM: 102%

SMILES: Cc1ccc(NC(=O)[C@H](CCCCN)NC(=O)CC2c3ccccc3-c3ccccc32)cc1 [Compound 53, (S)-6-AMINO-2-(2-9H-FLUOREN-9-YL-ACETYLAMINO)-HEXANOIC ACID P-TOLYLAMIDE]
- % Inhibition: 22%

SMILES: Cc1cc2cc(NC(=O)[C@H](CCNC(=O)CN)NC(=O)Nc3ccc4c(c3)Cc3ccccc3-4)ccc2[nH]1 [Compound 240, (S)-4-(2-AMINO-ACETYLAMINO)-2-[3-(9H-FLUOREN-2-YL)-UREIDO]-N-(2-METHYL-1H-INDOL-5-YL)-BUTYRAMIDE]
- inhibition at 10 µM: 63%

SMILES: Cc1ccc(NC(=O)[C@H](CCCCN)NC(=O)Nc2ccc(OCc3cccc(F)c3)cc2)cc1 [Compound 249, (S)-6-AMINO-2-{3-[4-(3-FLUORO-BENZYLOXY)-PHENYL]-UREIDO}-HEXANOIC ACID P-TOLYLAMIDE]
- % Inhibition: 67%

SMILES: NCCCCCCNC(=O)[C@H](Cc1ccccc1)NC(=O)Nc1ccc(OCc2ccccc2)cc1 [Compound 263, (S)—N-(6-AMINO-HEXYL)-2-[3-(4-BENZYLOXY-PHENYL)-UREIDO]-3-PHENYL-PROPIONAMIDE]
- inhibition at 10 µM: 31%

SMILES: Cc1ccc(NC(=O)[C@H](CCCCN)NC(=O)C2c3ccccc3-c3ccccc32)cc1 [Compound 52, (S)-9H-FLUORENE-9-CARBOXYLIC ACID (5-AMINO-1-P-TOLYLCARBAMOYL-PENTYL)-AMIDE]
- % Inhibition: 13%

SMILES: Cc1ccc(NC(=O)[C@@H](N)CCCCN)cc1 [Compound 114, (S)-2,6-DIAMINO-HEXANOIC ACID P-TOLYLAMIDE]
- % Inhibition: 17%

SMILES: CCNCC(=O)N1CCN(C(=O)OCC2c3ccccc3-c3ccccc32)C(CC(=O)Nc2ccc(C)cc2)C1 (stereo not drawn) [Compound 187, 4-(2-ETHYLAMINO-ACETYL)-2-(P-TOLYLCARBAMOYL-METHYL)-PIPERAZINE-1-CARBOXYLIC ACID 9H-FLUOREN-9-YLMETHYL ESTER]
- % Inhibition: 33.5%

SMILES: Cc1ccc(NC(=O)[C@H](CCCCN)NC(=O)Nc2ccc(OCc3ccccc3F)cc2)cc1 [Compound 248, (S)-6-AMINO-2-{3-[4-(2-FLUORO-BENZYLOXY)-PHENYL]-UREIDO}-HEXANOIC ACID P-TOLYLAMIDE]
- % Inhibition: 61%

SMILES: NCCCC[C@H](NC(=O)OCC1c2ccccc2-c2ccccc21)C(=O)N(Cc1ccccc1)C1CCCCC1 [Compound 33, (S)-[5-AMINO-1-(BENZYL-CYCLOHEXYL-CARBAMOYL)-PENTYL]-CARBAMIC ACID 9H-FLUOREN-9-YLMETHYL ESTER]
- inhibition at 10 µM: 95%

SMILES: Cc1ccc(NC(=O)[C@H](CCCCN)NC(=O)Nc2ccc(-c3ccccc3)cc2)cc1 [Compound 40, (S)-6-AMINO-2-(3-BIPHENYL-4-YL-UREIDO)-HEXANOIC ACID P-TOLYLAMIDE]
- % Inhibition: 95%

SMILES: NCCCCCCNC(=O)[C@@H](NC(=O)OCC1c2ccccc2-c2ccccc21)c1ccccc1 [Compound 313, (S)-[(6-AMINO-HEXYLCARBAMOYL)-PHENYL-METHYL]-CARBAMIC ACID 9H-FLUOREN-9-YLMETHYL ESTER]
- inhibition at 10 µM: 43%

SMILES: Cc1ccc(NC(=O)[C@H](CCCCN)NC(=O)Nc2ccc(CCc3ccccc3)cc2)cc1 [Compound 243, (S)-6-AMINO-2-[3-(4-PHENETHYL-PHENYL)-UREIDO]-HEXANOIC ACID P-TOLYLAMIDE]
- % Inhibition: 0%

SMILES: Cc1ccc(NC(=O)[C@H](CCCCN(C)C)NC(=O)OCC2c3ccccc3-c3ccccc32)cc1 [Compound 124, (S)-(5-DIMETHYLAMINO-1-P-TOLYLCARBAMOYL-PENTYL)-CARBAMIC ACID 9H-FLUOREN-9-YLMETHYL ESTER]
- % Inhibition: 79%

SMILES: Cc1ccc(NC(=O)[C@H](CNC(=O)CN)NC(=O)Nc2ccc(OCc3ccccc3)cc2)cc1 [Compound 268, (S)-3-(2-AMINO-ACETYLAMINO)-2-[3-(4-BENZYLOXY-PHENYL)-UREIDO]-N-P-TOLYL-PROPIONAMIDE]
- % Inhibition: 62.7%

From patent US20080171783A1, “COMPOSITIONS AND METHODS FOR TREATING HYPERPROLIFERATIVE DISEASE” (Migenix Inc., priority 2006, published 2008)
